Assay results as given in patent publication US11214803B2, “Modulators of YAP1 expression” (Ionis Pharmaceuticals, Inc., priority 2019, dated 2022).
Strand notation (5' to 3'): a small letter for the sugar, then the base; units joined by * are phosphorothioate-linked, units joined directly phosphodiester-linked; [ ] holds rarer units or linkages, { } end groups; capitals alone tell only the bases. e = 2'-O-(2-methoxyethyl) (MOE); k = constrained ethyl (cEt); [5mC] = 5-methylcytosine; d = 2'-deoxy (DNA); m = 2'-O-methyl

These substances were tested on Yap1 mRNA (assay: Antisense inhibition of human Yap1 in SNU-449 cells by modified oligonucleotides, single dose (Example 5, RTS36584)). Conditions: Table 39; SNU-449 cells, 10,000 cells per well, free uptake, 2,000 nM oligonucleotide, approx. 48 hours; RTS36584; normalized to RIBOGREEN; Yap1 mRNA relative to untreated control.
Format: cell-based
How it was run: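 SNU-449 cells (10,000/well) took up 2,000 nM oligonucleotide by free uptake for about 48 h. Yap1 mRNA was measured by qRT-PCR with primer probe set RTS36584 and normalised to RIBOGREEN total RNA. Values are % of untreated control; asterisked oligos target the amplicon region.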

Row | Substance | YAP1 (% UTC)
1 | 1198371 (kA*dT*dT*dG*dT*d[5mC]*dT*d[5mC]*dA*dT*dG*k[5mC]*e[5mC]*kT*eT*kA; antisense) [Compound 1198371] | 15
2 | 1198436 (kT*dA*dT*dG*dT*dA*dA*dT*dA*dT*dT*kG*e[5mC]*kA*eA*kT; antisense) [Compound 1198436] | 69
3 | 1198388 (kT*dA*dT*dA*dA*d[5mC]*dT*dG*dG*dG*d[5mC]*kA*eA*kA*eT*kT; antisense) [Compound 1198388] | 90
4 | 1198413 (kT*dT*dT*dA*dG*dG*dA*dT*dG*d[5mC]*dA*kT*eG*kG*eT*kT) [Compound 1198413] | 29

Same assay, conditions: Table 40 (separate experiment); SNU-449 cells, 10,000 cells per well, free uptake, 2,000 nM oligonucleotide, approx. 48 hours; RTS36584; normalized to RIBOGREEN; Yap1 mRNA relative to untreated control

Row | Substance | YAP1 (% UTC)
5 | 1198760 (kT*eT*kA*dG*dG*dA*dT*dG*d[5mC]*dA*dT*dG*eG*eT*kT*kT; antisense) [Compound 1198760] | 91
6 | 1198441 (kA*dA*dA*dG*dT*dG*dT*dA*dT*dG*dT*k[5mC]*eA*kG*eA*kA; antisense) [Compound 1198441] | 19

Same assay, conditions: Table 41; SNU-449 cells, 10,000 cells per well, free uptake, 2,000 nM modified oligonucleotide, approximately 48 hours; RTS36584; normalized to RIBOGREEN; Yap1 mRNA relative to untreated control cells

Row | Substance | YAP1 (% UTC)
7 | 1198633 (kG*kG*dA*dA*dA*dT*dT*dG*dT*d[5mC]*dT*d[5mC]*kA*eT*kG*e[5mC]; antisense) [Compound 1198633] | 46
8 | 1198676 (antisense kT*k[5mC]*dA*dG*dA*dT*dT*dT*dA*dG*dG*dA*kT*eG*k[5mC]*eA) [Compound 1198676] | 52
9 | 1198667 (antisense kA*kG*dT*dG*d[5mC]*dT*dT*dT*dG*dG*dA*dA*kG*eA*kT*e[5mC]) [Compound 1198667] | 40
10 | 1198734 (kA*eG*kG*dT*dA*dT*dA*dA*d[5mC]*dT*dG*dG*eG*e[5mC]*kA*kA; antisense) [Compound 1198734] | 29
11 | 1198660 (antisense kG*kG*dA*dA*dG*dA*dT*d[5mC]*dT*dG*dA*dA*kA*e[5mC]*kT*e[5mC]) [Compound 1198660] | 66
12 | 1198661 (antisense kT*kT*dG*dG*dA*dA*dG*dA*dT*d[5mC]*dT*dG*kA*eA*kA*e[5mC]) [Compound 1198661] | 111

Same assay, conditions: Table 42 (separate experiment); SNU-449 cells, 10,000 cells per well, free uptake, 2,000 nM modified oligonucleotide, approximately 48 hours; RTS36584; normalized to RIBOGREEN; Yap1 mRNA relative to untreated control cells

Row | Substance | YAP1 (% UTC)
13 | 1198207 (kA*kG*dT*dA*dT*dG*dT*dG*dG*d[5mC]*dA*eA*eT*eA*kA*kT; antisense) [Compound 1198207] | 91
14 | 1198707 (kA*kA*dG*dT*dA*dA*dG*dG*dT*dT*dT*d[5mC]*k[5mC]*e[5mC]*kA*eG; antisense) [Compound 1198707] | 31
15 | 1198699 (kA*kA*dA*dG*dT*dG*dT*dA*dT*dG*dT*d[5mC]*kA*eG*kA*eA; antisense) [Compound 1198699] | 30

Same assay, conditions: Table 43 experiment; SNU-449 cells, 10,000 cells per well, free uptake, 2,000 nM, approximately 48 hours; RTS36584; Yap1 mRNA normalized to RIBOGREEN, relative to untreated control cells

Row | Substance | YAP1 (% UTC)
16 | 1198471 (antisense kA*kT*dA*dT*dT*dA*dG*dA*dG*dT*dA*eT*kG*eT*kG*eG) [Compound 1198471] | 21
17 | 1198243 (kG*kA*dT*dT*dT*dA*dG*dG*dA*dT*dG*e[5mC]*eA*eT*kG*kG; antisense) [Compound 1198243] | 8
18 | 1198482 (antisense kA*k[5mC]*dT*dT*dT*dT*dA*d[5mC]*dA*dT*dT*eA*kG*eG*kA*eA) [Compound 1198482] | 63

Same assay, conditions: Table 44 experiment; SNU-449 cells, 10,000 cells per well, free uptake, 2,000 nM, approximately 48 hours; RTS36584; Yap1 mRNA normalized to RIBOGREEN, relative to untreated control cells

Row | Substance | YAP1 (% UTC)
19 | 1198515 (kA*kT*dT*dG*d[5mC]*dA*dA*dT*d[5mC]*dT*dG*eT*k[5mC]*eT*kG*eA; antisense) [Compound 1198515] | 44
20 | 1198540 (antisense kA*kG*dA*d[5mC]*dT*dA*dA*dG*dT*dA*dA*eG*kG*eT*kT*eT) [Compound 1198540] | 51
21 | 1198905 (kA*kT*dA*dT*dT*dA*dG*dA*dG*dT*dA*kT*dG*kT*dG*kG; antisense) [Compound 1198905] | 5
22 | 1198491 (antisense k[5mC]*kT*dT*dT*dG*dG*dA*dA*dG*dA*dT*e[5mC]*kT*eG*kA*eA) [Compound 1198491] | 22
23 | 1198536 (kT*kA*dA*dG*dT*dA*dA*dG*dG*dT*dT*eT*k[5mC]*e[5mC]*k[5mC]*eA; antisense) [Compound 1198536] | 20
24 | 1198476 (antisense kA*kG*dG*dT*dA*dT*dA*dA*d[5mC]*dT*dG*eG*kG*e[5mC]*kA*eA) [Compound 1198476] | 31

Same assay, conditions: Table 45; Yap1 mRNA as percent of untreated control, SNU-449 cells, single dose

Row | Substance | YAP1 (% UTC)
25 | 1198952 (kT*kA*dA*dT*dA*dT*dT*dG*d[5mC]*dA*kA*kT*d[5mC]*kT*dG*kT; antisense) [Compound 1198952] | 77
26 | 1198949 (kA*kT*dT*dG*d[5mC]*dA*dA*dT*d[5mC]*dT*dG*kT*d[5mC]*kT*dG*kA; antisense) [Compound 1198949] | 61
27 | 1198942 (k[5mC]*kT*dT*dA*dT*dA*dT*dG*dG*dT*dT*kT*dT*kG*dT*kG; antisense) [Compound 1198942] | 42

Same assay, conditions: Table 46; Yap1 mRNA as percent of untreated control, SNU-449 cells, single dose

Row | Substance | YAP1 (% UT)
28 | 1198806 (antisense kA*kA*dT*dT*dG*dT*d[5mC]*dT*d[5mC]*dA*dT*kG*e[5mC]*k[5mC]*eT*kT) [Compound 1198806] | 33
29 | 1198811 (antisense kA*kT*dG*dG*dA*dA*dA*dT*dT*dG*dT*k[5mC]*eT*k[5mC]*eA*kT) [Compound 1198811] | 38
30 | 1198866 (kT*kA*dA*dT*dA*dT*dT*dG*d[5mC]*dA*dA*kT*e[5mC]*kT*eG*kT; antisense) [Compound 1198866] | 60

Same assay, conditions: Table 48; Yap1 mRNA level relative to untreated control; modified oligonucleotides targeting SEQ ID NO.: 1 and 2

Row | Substance | YAP1 (% UT)
31 | 1198343 (kA*kT*kT*dG*d[5mC]*dA*dA*dT*d[5mC]*dT*dG*dT*k[5mC]*eT*kG*eA; antisense) [Compound 1198343] | 39
32 | 1198293 (kA*kG*kT*dA*dT*dG*dT*dG*dG*d[5mC]*dA*dA*kT*eA*kA*eT; antisense) [Compound 1198293] | 25
33 | 1198323 (kA*kG*kT*dG*d[5mC]*dT*dT*dT*dG*dG*dA*dA*kG*eA*kT*e[5mC]; antisense) [Compound 1198323] | 32
34 | 1198325 (kA*kG*kG*dA*dT*dG*d[5mC]*dA*dT*dG*dG*dT*kT*eT*kT*eT; antisense) [Compound 1198325] | 34
35 | 1198324 (kA*kT*kA*dG*dT*dG*d[5mC]*dT*dT*dT*dG*dG*kA*eA*kG*eA; antisense) [Compound 1198324] | 53
36 | 1198318 (kT*kT*kT*dG*dG*dA*dA*dG*dA*dT*d[5mC]*dT*kG*eA*kA*eA; antisense) [Compound 1198318] | 120

Same assay, conditions: Table 49; Yap1 mRNA level relative to untreated control; modified oligonucleotides targeting SEQ ID NO.: 1 and 2

Row | Substance | YAP1 (% UT)
37 | 1198550 (antisense kA*kT*kA*dT*dG*dG*dA*dA*dA*dT*dT*dG*kT*k[5mC]*kT*e[5mC]) [Compound 1198550] | 17
38 | 1198581 (antisense kA*kG*kT*dG*d[5mC]*dT*dT*dT*dG*dG*dA*dA*kG*kA*kT*e[5mC]) [Compound 1198581] | 42
39 | 1198342 (kG*kA*k[5mC]*dA*dA*d[5mC]*dT*d[5mC]*dT*dT*dA*dT*kA*eT*kG*eG; antisense) [Compound 1198342] | 101

Same assay, conditions: Table 50; Yap1 mRNA remaining as percent of untreated control (UT), SNU-449 cells, single dose

Row | Substance | YAP1 (% UT)
40 | 1198612 (antisense kA*kA*kG*dT*dG*dT*dA*dT*dG*dT*d[5mC]*dA*kG*kA*kA*eG) [Compound 1198612] | 5
41 | 1198597 (antisense kA*k[5mC]*kT*d[5mC]*dT*dT*dA*dT*dA*dT*dG*dG*kT*kT*kT*eT) [Compound 1198597] | 27
42 | 1197280 (kT*kG*kT*d[5mC]*mU*d[5mC]*dA*dT*dG*d[5mC]*d[5mC]*dT*dT*kA*kT*kA; antisense) [Compound 1197280] | 53

Same assay, conditions: Table 51; Yap1 mRNA remaining as percent of untreated control (UT), SNU-449 cells, single dose

Row | Substance | YAP1 (% UT)
43 | 1197264 (kA*kT*kT*dG*mC*dA*dA*dT*d[5mC]*dT*dG*dT*d[5mC]*kT*kG*kA) [Compound 1197264] | 33
44 | 1197310 (kT*kA*kT*dG*mU*dA*dA*dT*dA*dT*dT*dG*d[5mC]*kA*kA*kT; antisense) [Compound 1197310] | 109
45 | 1197296 (kT*kG*k[5mC]*dT*mU*dT*dG*dG*dA*dA*dG*dA*dT*k[5mC]*kT*kG) [Compound 1197296] | 36

Same assay, conditions: Table 52; Yap1 mRNA, modified oligonucleotides targeting SEQ ID NO: 1 and 2

Row | Substance | YAP1 (% UT)
46 | 1200829 (kA*kG*kG*dA*dT*mG*d[5mC]*dA*dT*dG*dG*dT*dT*kT*kT*kT; antisense) [Compound 1200829] | 49

Same assay, conditions: Yap1 mRNA, percent of untreated control; modified oligonucleotides targeting SEQ ID NO: 1 and 2; Table 47

Row | Substance | YAP1 (% UT)
47 | 1198879 (k[5mC]*kT*dT*dT*dA*dA*dA*dG*dT*dG*dT*kA*eT*kG*eT*k[5mC]; antisense) [Compound 1198879] | 29
48 | 1197190 (antisense k[5mC]*kT*kT*dT*dG*dG*dA*dA*dG*dA*dT*d[5mC]*dT*kG*kA*kA) [Compound 1197190] | 57
49 | 1198861 (CAACTCTTATATGGTT; chemistry not fully specified) [Compound 1198861] | 100
